These are literature values, as cited in patent publication US20260144779A1, “MODIFIED RELEASE PHARMACEUTICAL FORMULATIONS COMPRISING DEFERIPRONE” (CHIESI FARMACEUTICI S.P.A., priority 2022, published 2026).

SMILES strings stand for the structures.

For this series the following is noted: in vivo.

On to `Cc1c(O)c(=O)ccn1C` [Deferiprone, 3-hydroxy-1,2-dimethylpyridin-4-one], for which the Half-life was 2 to 3 h.
